For data set [1], the system named is reconstructed human epidermis (RHE) samples. Kind of data set: 3D in vitro reconstructed human epidermis (RHE) model, viable epidermal thickness measured with the machine-learning model after 4-day treatment. The source says: A decrease in epidermal thickness of the skin may be a toxicity indication for skin toxicities as well as for cutaneous disease. For example, one can calculate a percentage by dividing the epidermal thickness of the skin after the treatment by a drug compound by the epidermal thickness before the treatment. If the percentage is smaller than 10%, it may indicate very severe toxicity; if the percentage is between 10% and 50%, it may indicate severe toxicity; if the percentage is between 50% and […], it may indicate mild toxicity; and if the percentage is larger than 90%, it may indicate rare or no toxicity. There are few preclinical methods for evaluating in vivo skin toxicity prior to clinical trial. The last two decades have seen the advent of in vitro human skin models, which have a proven record of accurately predicting clinical skin toxicity. FIG. 3A illustrates an example reconstructed human epidermis (RHE) model 300. These reconstituted human epidermal (RHE) models 300 may be metabolically and mitotically active 3D models of the normal human epidermis derived from cultured human epidermal keratinocytes. The RHE models 300 may have in vivo-like morphology and growth characteristics. […] The RHE models 300 may have keratinocytes only but no dermis, vasculature or immune/inflammatory cells.
FIG. 5A illustrates an example annotation of an RHE sample 310 with tissue sections. […] After the epidermal area is identified, the thickness of the viable epidermal area may be computed, e.g., based on distance transformation. In particular embodiments, the median thickness value may be used to represent the thickness of the viable epidermal area for each tissue section and the average thickness of the two tissue sections of a RHE sample 310 may be used to represent a single RHE sample 310. FIG. 5B illustrates an example extraction of thickness of a tissue sample. […] The digital pathology image processing system 110 may then quantify, based on the centerline, a thickness value for each of the plurality of locations. […] This way, the thickness of each tissue sample (e.g., RHE sample 310) may be normalized. FIG. 5C illustrates an example normalization of the tissue thickness. […] The left subfigure of FIG. 5C may show the originally measured thickness whereas the right subfigure of FIG. 5C may show the normalized thickness. Although this disclosure describes calculating normalized thickness in a particular manner, this disclosure contemplates calculating normalized thickness in any suitable manner. As an example and not by way of limitation, the digital pathology image processing system may determine a plurality of stepwise thickness measurements along an axis determined based on the epidermal layer, calculate a length and area of the epidermal layer with the thickness being derived from them, and then calculate the normalized thickness accordingly.
The embodiments disclosed herein further conduct a retrospective study based on RHE samples 310 from five studies that evaluated the skin toxicity of various compounds. The 3D in vitro human skin model was used for all studies. A total of 31 compounds with known or suspected clinical skin toxicity were evaluated for skin toxicity, some of which were evaluated in more than one study. Upon receipt of the RHE samples 310, each tissue culture insert was transferred to a well of 6-well plate containing 1 mL/well of pre-warmed maintenance media and kept dry on top to maintain an air-liquid interface. The RHE samples 310 were equilibrated at 37° C., 5% CO2 overnight, and fed with fresh media the next day. One day later, the RHE samples 310 were subjected to 4-day daily basolateral treatment with test articles at various concentrations, or vehicle control DMSO at 0.5%.

For data set [2] the following is noted: cited from earlier work.
For the next data set, the system named is skin. The conditions noted are these: cited from earlier work; for Skin tox.: clinical skin toxicity (rash, pruritus, acne, dermatitis, alopecia, dry skin) in labels or publications; for clinical toxicity: clinical skin toxicity.
Setting [3] is: clinical exposure, maximal free concentrations measured in plasma.
[4] abbreviates: mean, normalized to control, test concentration 2 uM.
[5] abbreviates: mean, normalized to control, test concentration 10 uM.
[6] abbreviates: marked *: plasma protein binding unavailable, total concentration used.

Read-outs that look alike come from different tables or passages of the source.

As for `CN(C)C/C=C/C(=O)Nc1cc2c(Nc3ccc(F)c(Cl)c3)ncnc2cc1O[C@H]1CCOC1` [Afatinib], the “change in epidermal thickness versus control (FIG. 11A)” value (“change” below) in data set [1] is recorded as “significant decrease in epidermal thickness”. In addition, in data set [1] (human, 4 days, 1 uM), the Normalized thickness came out at 0.70. This compound registered a Normalized thickness in data set [1] (human, 4 days, 10 uM) of 0.77. For the same compound, the Cmax_free in data set [2] (setting [3]) was 0.0042 µM. In the data set on skin, the Skin tox. result was “Yes” and the clinical toxicity entry is on record as “demonstrated clinical toxicity”.
Regarding `Cc1nc(NC(=O)N2CCC[C@H]2C(N)=O)sc1-c1ccnc(C(C)(C)C(F)(F)F)c1` [Alpelisib], in data set [1], the “change” value is reported as “significant decrease in epidermal thickness”. Moreover, the Normalized thickness in data set [1] (human, 4 days, 0.32 uM) worked out at 0.75. The Normalized thickness in data set [1] (human, 4 days, 3.2 uM) is 0.45. Moreover, in data set [2] (setting [3]), the Cmax_free is 0.61 µM. In addition, in the data set on skin, the Skin tox. entry is reported as “Yes” and the clinical toxicity result is given as “demonstrated clinical toxicity”.
On to `O=C(c1ccc(F)c(F)c1Nc1ccc(I)cc1F)N1CC(O)([C@@H]2CCCCN2)C1` [Cobimetinib], for which the “change” value in data set [1] is listed as “significant decrease in epidermal thickness”. Further, the Normalized thickness in data set [1] (human, 4 days, 0.02 uM) is reported as 0.91; in data set [1] (human, 4 days, 1 uM) it was 0.71. The Cmax_free in data set [2] (setting [3]) was 0.03 µM. The Skin tox. entry in the data set with skin is listed as “Yes”. In addition, the clinical toxicity result in the data set with skin is recorded as “demonstrated clinical toxicity”.
Take `C#Cc1cccc(Nc2ncnc3cc(OCCOC)c(OCCOC)cc23)c1` [Erlotinib]: the “change” value in data set [1] was “significant decrease in epidermal thickness”. In addition, the Normalized thickness in data set [1] (human, 4 days, 1 uM) is given as 0.53; in data set [1] (human, 4 days, 2 uM), 0.75; in data set [1] (human, 4 days, 10 uM) it was 0.41. Further, the Cmax_free in data set [2] (setting [3]) was 0.38 µM. Further, the Skin tox. entry in the data set with skin was “Yes”. Moreover, the clinical toxicity result with skin is given as “demonstrated clinical toxicity”.
Regarding `CC[C@H](Nc1ncnc2[nH]cnc12)c1nc2cccc(F)c2c(=O)n1-c1ccccc1` [Idelalisib], the Normalized thickness is given as 0.95 in data set [1] (human, 4 days, 0.08 uM) and 1.00 in data set [1] (human, 4 days, 0.8 uM). Also, in data set [2] (setting [3]), the Cmax_free was 0.84 µM. For the same compound, the Skin tox. entry with skin is “Yes”.
As to `Cn1cc(-c2ccc3nnc(C(F)(F)c4ccc5ncccc5c4)n3n2)cn1` [Jnj-38877605], the Normalized thickness is 0.82 in data set [1] (setting [4]) and 0.91 in data set [1] (setting [5]). Moreover, the Cmax_free in data set [2] (setting [6]) is given as 0.13* uM. In the data set on skin, the Skin tox. entry is given as “No”.
For the compound `CS(=O)(=O)CCNCc1ccc(-c2ccc3ncnc(Nc4ccc(OCc5cccc(F)c5)c(Cl)c4)c3c2)o1` [Lapatinib], the “change” value in data set [1] is “significant decrease in epidermal thickness”. In data set [1] (human, 4 days, 1 uM), this compound displayed a Normalized thickness of 0.66. This compound displayed a Normalized thickness in data set [1] (human, 4 days, 10 uM) of 0.47. The Cmax_free in data set [2] (setting [3]) is 0.000039 µM. Also, in the data set on skin, the Skin tox. result was “Yes” and the clinical toxicity result is on record as “demonstrated clinical toxicity”.
Take `C=CC(=O)Nc1cc(Nc2nccc(-c3cn(C)c4ccccc34)n2)c(OC)cc1N(C)CCN(C)C` [Osimertinib]: in data set [1], the “change” value is “significant decrease in epidermal thickness”. The Normalized thickness in data set [1] (human, 4 days, 0.3 uM) is 0.85; in data set [1] (human, 4 days, 1 uM), 0.61; in data set [1] (human, 4 days, 3 uM), 0.45; in data set [1] (human, 4 days, 10 uM) it was 0.76. Besides, in data set [1] (human, 4 days, 300 nM), the median normalized thickness came to 0.80. In data set [2] (setting [3]), the Cmax_free is 0.025 µM. The Skin tox. entry with skin is on record as “Yes”. In addition, the clinical toxicity entry in the data set with skin is given as “demonstrated clinical toxicity”.
As for `CC(=O)c1c(C)c2cnc(Nc3ccc(N4CCNCC4)cn3)nc2n(C2CCCC2)c1=O` [Palbociclib], the Normalized thickness in data set [1] (human, 4 days, 0.023 uM) was found to be 1.02; in data set [1] (human, 4 days, 0.23 uM), 0.99. In the data set with skin, the Skin tox. result was “Yes”.
Turning to `OCCn1cc(-c2cnc3nnn(Cc4ccc5ncccc5c4)c3n2)cn1` [Pf-04217903], the “normalized epidermal thickness decrease” value in data set [1] (10 µM) is reported as “greater than 20%”. The Normalized thickness in data set [1] (setting [4]) turned out to be 0.91. Further, the Normalized thickness in data set [1] (setting [5]) is given as 0.72. In data set [1] (normalized viable epidermal thickness, multiple comparison, result in words), the “change” value is listed as “significant decrease in epidermal thickness”. The Cmax_free in data set [2] (setting [3]) was 0.015 µM. Further, in the data set on skin, the Skin tox. result is reported as “No” and the clinical toxicity entry is “did not exhibit clinical toxicity”.
As to `CS(=O)(=O)N1CCN(Cc2cc3nc(-c4cccc5[nH]ncc45)nc(N4CCOCC4)c3s2)CC1` [Pictilisib], the “change” value in data set [1] is given as “significant decrease in epidermal thickness”. The Normalized thickness in data set [1] (human, 4 days, 0.02 uM) was 0.94; in data set [1] (human, 4 days, 1 uM), 0.46.
Take `C=CC(=O)N1CCC(Oc2cc3c(Nc4ccc(Cl)c(Cl)c4F)ncnc3cc2OC)CC1` [Poziotinib]: the “change” value in data set [1] is “significant decrease in epidermal thickness”. In addition, the Normalized thickness in data set [1] (human, 4 days, 0.3 uM) came to 0.72; in data set [1] (human, 4 days, 1 uM), 0.65; in data set [1] (human, 4 days, 10 uM), 0.73. Further, in data set [2] (setting [3]), the Cmax_free was 0.0021 µM. Besides, the Skin tox. result in the data set with skin is reported as “Yes”. Moreover, in the data set on skin, the clinical toxicity result is on record as “demonstrated clinical toxicity”.
With `N#CC[C@H](C1CCCC1)n1cc(-c2ncnc3[nH]ccc23)cn1` [Ruxolitinib], the “change” value in data set [1] was “significant decrease in epidermal thickness”. In data set [1] (human, 4 days, 2 uM), this compound registered a Normalized thickness of 0.85. The Normalized thickness in data set [1] (human, 4 days, 10 uM) worked out at 0.81. For the same compound, the Cmax_free in data set [2] (setting [3]) is 0.033 µM. In the data set with skin, the Skin tox. entry is reported as “No” and the clinical toxicity result was “did not exhibit clinical toxicity”.
Turning to `CNC(=O)c1cc(Oc2ccc(NC(=O)Nc3ccc(Cl)c(C(F)(F)F)c3)cc2)ccn1` [Sorafenib], in data set [1], the “change” value is reported as “failed to cause any meaningful change in epidermal thickness”. In addition, the Normalized thickness in data set [1] (human, 4 days, 0.5 uM) was 0.87; in data set [1] (human, 4 days, 5 uM), 0.85. Also, in data set [2] (setting [3]), the Cmax_free was 0.07 µM. Also, the Skin tox. result in the data set on skin is on record as “Yes”.
Regarding `C[C@@H]1CCN(C(=O)CC#N)C[C@@H]1N(C)c1ncnc2[nH]ccc12` [Tofacitinib], the “change” value in data set [1] is “significant decrease in epidermal thickness”. In data set [1] (human, 4 days, 2 uM), this compound returned a Normalized thickness of 0.84. Moreover, the Normalized thickness in data set [1] (human, 4 days, 10 uM) is recorded as 0.82. In the data set on skin, the Skin tox. result is listed as “No” and the clinical toxicity result is given as “did not exhibit clinical toxicity”.
For the compound `COC(=O)Nc1nc2cc(C3(O)c4ccccc4C(=O)N3c3cc(Cl)ccc3C)ccc2[nH]1` (centres unmarked) [XL281], the “change” value in data set [1] is given as “increase in epidermal thickness”. The Normalized thickness in data set [1] (human, 4 days, 0.5 uM) is 1.14; in data set [1] (human, 4 days, 5 uM) it was 0.89. In data set [2] (setting [6]), the Cmax_free was 4.5* uM. Further, in the data set on skin, the Skin tox. result was “No”.

The record behind these values is patent publication US20230162361A1, “ASSESSMENT OF SKIN TOXICITY IN AN IN VITRO TISSUE SAMPLES USING DEEP LEARNING” (Genentech, Inc., priority 2020, published 2023).
